Like-named read-outs stand apart in the source and are kept apart here.
Key:
[1] = tested on: FXR signaling (CYP7A1, NROB2/SHP, FGF19 expression) in DesLO; assay: qRT-PCR of bile acid synthesis / FXR pathway genes in DesLO after addition of FXR agonist, bile acid or FGF19
Description: (§1) To further delineate the mechanism of FXR-mediated CYP7A1 repression, we tested FXR, NROB2, and FGF19 expression following GW4064 treatment.
(§2) Tissues were harvested and lysed by adding 500 μL Trizol (Life Technologies) directly to the tissue culture well and freezing at −80C. For extraction, lysate was thawed on ice, 100 μL chloroform was added, vortexed for 30 seconds, and centrifuged at 12,000 g for 15 minutes at 4° C. After centrifugation the aqueous phase was transferred to a Qiagen gDNA eliminator column and centrifuged at 10,000 g for 1 minute at 4° C. The flow-through was mixed with an equal volume of 70% EtOH and transferred to an RNEasy mini spin column. The manufacturer protocol for the RNEasy Plus Mini Kit (QIAGEN) was followed for the rest of the procedure. cDNA was synthesized using the high Capacity cDNA reverse transcription (Applied Biosystems). qRT-PCR was performed using the SYBR Green intercalating dye (ThermoFisher Scientific) and previously validated primers (IDT). Expression was normalized to 18S ribosomal RNA and relative gene expression was calculated using 2^−ΔΔCT method.

[2] = tested on: bile acid synthesis in DesLO; assay: Total bile acid assay in media; format: cell-based, human; details: addition of GW4064
Description: The cell supernatant was assessed at multiple dilutions to optimize detection, and the assay was performed according to the manufacturer's protocol.

[3] = tested on: FXR signaling (CYP7A1, NROB2/SHP, FGF19 expression) in FeLO; assay: qRT-PCR of bile acid synthesis / FXR pathway genes in FeLO after addition of FXR agonist; details: FeLO cultures
Description: as §1, §2

[4] = tested on: Desmin positive stellate-like cells in DesLO; assay: Fibrogenesis model: Desmin immunofluorescence and qRT-PCR; format: cell-based, human; details: for Desmin positive population (immunofluorescence staining): 5 ng/mL TGFB1 for 3 days
Description: Multicellular DesLO as a Model for Fibrogenesis: Hepatic fibrosis is a maladaptive multicellular response of liver that is characterized by an excessive accumulation of extracellular matrix. It is a wound healing process, largely mediated by hepatic stellate cells (liver pericytes) which proliferate, deposit collagen, and generate scar tissue in response to injury. Since DesLOs contain a population of stellate-like cells we assessed whether this cell population respond to classical fibrotic stimuli. We induced fibrogenesis via transforming growth factor beta-1 (TGFβ1) or a combination of TGFβ1 and fetal bovine serum (FBS) supplementation to the culture medium. […] It is known that tissue culture treated polystyrene (TCTP) can increase cell stress and stellate cell proliferation.
Cells were grown on Matrigel-coated 8 mm or 12 mm diameter circular glass coverslips and fixed for 20 min in 4% paraformaldehyde (Electron Microscopy Sciences) at room temperature. Coverslips were then washed three times in 200 μl PBS droplets on Parafilm (Pechiney Plastic Packaging Company) followed by 15 min permeabilization in 100 μl of 0.2% Triton X-100 in PBS. Subsequently the coverslips were washed three times in 200 μl in washing buffer (0.05% Tween-20 in PBS) for 5 min and blocked for 20 min in 200 μl wash buffer plus 5% normal donkey serum (Jackson ImmunoResearch Laboratories). The incubation with the primary antibodies was performed for 1 h at room temperature in 30 μl of 5% normal donkey serum in PBS followed by three washes in 200 μl in PBS for 5 min each. The incubation with the secondary antibodies was performed for 1 h at room temperature in 30 μl of 5% normal donkey serum in PBS followed by three washes in 200 μl in PBS for 5 min. Finally, the coverslips were mounted on microscopy glass slides using ProLong Diamond Antifade (Life Technologies, USA), cured overnight at room temperature and then sealed with nail polish. Antibody list and concentrations are included in the supplement.

[5] = tested on: FXR signaling (CYP7A1, NROB2/SHP, FGF19 expression) in DesLO
Description: as §1, §2

Molecule: CC(C)c1onc(-c2c(Cl)cccc2Cl)c1COc1ccc(/C=C/c2cccc(C(=O)O)c2)c(Cl)c1 [GW4064]
- upregulation of FGF19 ([1]; GW4064 treatment): > 40 folds
- upregulation of SHP (NROB2) ([1]; GW4064 treatment): > 40 folds
- CYP7A1 repression (real-time qPCR) ([1]; addition of GW4064): 4 fold
- total bile acid in media [2]: repression of bile acid synthesis
- upregulation of SHP and FGF19 / CYP7A1 repression ([3]; GW4064 treatment): could not be captured
- CYP7A1 repression (real-time qPCR) ([3]; addition of GW4064): not repressed

Molecule: transforming growth factor beta-1 [TGFβ1]
- Desmin positive population (immunofluorescence staining) ([4]; DesLO, versus vehicle control): visibly expanded
- Desmin positive population (immunofluorescence staining) ([4]; DesLO, versus vehicle control, listed as TGFB1): increase in expression
- Desmin levels (qRT-PCR) ([4]; DesLO, versus vehicle control): increase
- response to TGFβ1 treatment (Desmin qRT-PCR) ([4]; both FeLO and DesLO): responded modestly

Molecule: C[C@H](CCC(=O)O)[C@H]1CC[C@H]2[C@@H]3[C@H](O)C[C@@H]4C[C@H](O)CC[C@]4(C)[C@H]3CC[C@]12C [CDCA, chenodeoxycholic acid]
- CYP7A1 expression change (qRT-PCR) [5]: expected downregulation of CYP7A1

Molecule: fibroblast growth factor 19 [FGF19]
- CYP7A1 expression change (qRT-PCR) ([1]; addition to the media): expected downregulation of CYP7A1
